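Cells were grown in 96-well plates and exposed to each compound for 48 hours at five concentrations; endpoints were interpolated linearly between bracketing concentrations, or set to the highest concentration if not reached. At the TGI there is no net growth.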
Assays:
Assay in all cases: NCI tumour cell line growth inhibition, 48 h
HCT-15 colon = tested on: HCT-15 colon
EKVX NSCLC = tested on: EKVX NSCLC
SK-MEL-5 melanoma = tested on: SK-MEL-5 melanoma
T-47D breast = tested on: T-47D breast
RXF 393 renal = tested on: RXF 393 renal
KM12 colon = tested on: KM12 colon
NCI-H522 lung = tested on: NCI-H522 lung
UACC-62 melanoma = tested on: UACC-62 melanoma
A549 NSCLC = tested on: A549 NSCLC
SNB-75 CNS = tested on: SNB-75 CNS
HCC-2998 colon = tested on: HCC-2998 colon
SR leukemia = tested on: SR leukemia
SK-MEL-2 melanoma = tested on: SK-MEL-2 melanoma
HS 578T breast = tested on: HS 578T breast
SF-539 CNS = tested on: SF-539 CNS
CAKI-1 renal = tested on: CAKI-1 renal
SNB-19 CNS = tested on: SNB-19 CNS
K-562 leukemia = tested on: K-562 leukemia
BT-549 breast = tested on: BT-549 breast
XF 498 CNS = tested on: XF 498 CNS

Row | SMILES | TGI (HCT-15 colon) [µM] | TGI (EKVX NSCLC) [µM] | TGI (SK-MEL-5 melanoma) [µM] | TGI (T-47D breast) [µM] | TGI (RXF 393 renal) [µM] | TGI (KM12 colon) [µM] | TGI (NCI-H522 lung) [µM] | TGI (UACC-62 melanoma) [µM] | TGI (A549 NSCLC) [µM] | TGI (SNB-75 CNS) [µM] | TGI (HCC-2998 colon) [µM] | TGI (SR leukemia) [µM] | TGI (SK-MEL-2 melanoma) [µM] | TGI (HS 578T breast) [µM] | TGI (SF-539 CNS) [µM] | TGI (CAKI-1 renal) [µM] | TGI (SNB-19 CNS) [µM] | TGI (K-562 leukemia) [µM] | TGI (BT-549 breast) [µM] | TGI (XF 498 CNS) [µM]
1 | S=c1[nH]nc(NNc2ccccc2)n1Nc1ccccc1 | > 100 | > 100 | > 100 | > 59.6 | > 100 | > 100 | > 100 | > 100 | > 100 | > 100 | > 100 | > 91.1 | > 100 | > 100 | > 73.6 | > 100 | > 100 | > 100 | > 100 | –
2 | C=C(C)C12CC3CC/C(=N/O)C(C1)C3(N1CCOCC1)C/C2=N/O (stereo not drawn) | > 100 | > 100 | > 100 | > 100 | > 100 | > 100 | > 100 | > 100 | > 100 | > 100 | > 100 | > 100 | > 100 | > 100 | > 100 | > 100 | > 100 | > 100 | > 100 | –
3 | CCOC(=O)c1c(N2CCCC2)[nH]c(=O)c(C(c2cccs2)c2c(O)c(C(=O)OCC)c(N3CCCC3)[nH]c2=O)c1O | > 100 | > 100 | > 100 | > 100 | > 100 | > 100 | > 100 | > 100 | > 100 | > 100 | > 100 | > 100 | > 100 | > 100 | > 100 | > 100 | > 100 | > 100 | > 100 | –
4 | CC(CCCOC(c1ccccc1)(c1ccccc1)c1ccccc1)OC(=O)Nc1ccccc1 (stereo not drawn) | 27.9 | – | 27.1 | – | 26.5 | 27.1 | 23.9 | 25.5 | 23.2 | 27.9 | 27.3 | 44.7 | – | – | 31.7 | 26.8 | – | 32.4 | – | 28.1
5 | CCOP(=O)(OCC)/C(C#N)=C/c1c[nH]c2ccccc12 | > 100 | > 100 | > 100 | > 100 | > 100 | > 100 | > 100 | > 100 | > 100 | > 100 | > 100 | > 100 | > 100 | > 100 | > 100 | > 100 | > 100 | > 100 | > 100 | –
6 | C/C=C/[C@H](O[Si](C)(C)C(C)(C)C)[C@@H](O)/C=C/C(=O)OCC | 27.7 | 45.4 | 32.2 | 89.8 | 43.1 | 32.3 | 30.3 | 38.8 | > 100 | > 100 | 34.8 | 44.1 | 82 | 79.5 | 52 | 34.2 | 28.7 | 43.9 | 65.4 | –
7 | O=C1c2ccccc2C(=O)c2oc(Br)cc21 | 1.91 | 4.07 | 0.284 | 3.6 | 2.87 | 3.2 | 3.04 | 1.84 | 1.03 | 0.684 | 3.27 | 5.78 | 1.73 | 0.732 | 1.84 | 3.43 | 2.87 | 4.77 | 3.11 | –
8 | O=c1[nH]c2c(c(=O)[nH]1)SSC2 | > 91.9 | > 81.4 | 29.1 | 25.2 | 28.5 | 38.8 | 38.5 | 9.14 | > 63.5 | 34.8 | 30.5 | 2.09 | 14.5 | 56 | 9.7 | 44.5 | > 81.3 | 5.52 | 6.65 | –
9 | S=C1N=C(Cl)/C(=C\c2ccccc2)N1 | > 100 | > 100 | > 100 | > 100 | > 100 | > 100 | > 100 | > 100 | > 100 | > 100 | > 100 | > 100 | > 100 | > 100 | > 100 | > 100 | > 100 | > 100 | > 100 | –
10 | COc1ccc(N2C(=O)CC(c3c[nH]c4ncccc34)C2=O)cc1 (stereo not drawn) | 59.3 | > 75.6 | > 100 | 50.4 | 42.5 | > 100 | 24.2 | > 96.4 | > 100 | > 100 | > 100 | > 20 | > 100 | > 100 | > 65.3 | 37.2 | > 100 | 24.9 | 37.2 | –
11 | COc1ccc2c(c1)CCC(OS(=O)(=O)CC13CCC(CC1=O)C3(C)C)C2=O (stereo not drawn) | 92 | > 100 | 39.2 | – | – | 41.1 | 53.7 | 34.8 | 78 | > 100 | 50.9 | 73.3 | 55.8 | – | 41.6 | > 100 | > 100 | > 100 | – | 93.9
12 | CCOC(=O)C(=O)C(CCC(=O)c1ccc2ccccc2c1O)C(=O)OCC (stereo not drawn) | > 100 | > 100 | > 100 | > 100 | > 100 | > 100 | > 100 | > 100 | > 100 | > 100 | > 100 | > 100 | > 100 | > 100 | > 100 | > 100 | > 100 | > 100 | > 100 | –
13 | Cc1ccc(S(=O)(=O)c2c(N)n(CCN(C)C)c3nc4ccccc4nc23)cc1 | > 100 | > 100 | > 100 | – | – | > 100 | 58.7 | – | > 100 | > 100 | > 100 | – | > 100 | – | > 100 | – | > 100 | > 100 | – | > 100
